These results are taken from ChEMBL document CHEMBL3872248, “Discovery and initial optimization of alkoxyanthranilic acid derivatives as inhibitors of HCV NS5B polymerase” (Bioorg Med Chem Lett, 2017).

Each structure is given as a SMILES string. The source made the active and inactive calls. The rule behind the calls is not given here. Bounds are passed on as bounds.

The test system of one assay is Hepatitis C virus. The experiment in a line: Antiviral activity against HCV genotype 1b Con1 expressing NS3 protease infected in human Huh-7 cells assessed as reduction in viral RNA replication measured after 3 days by EnduRen-based luciferase reporter gene assay. It is filed as functional, cell-based, Hepacivirus hominis. The settings on record: genotype 1b Con1, Huh-7, 72 h. A general note: Reporter assays use an easily measured gene product as a stand-in for the process of interest.
Usually EC50 stands for the midpoint of the concentration-response curve. As to `O=C(O)CNC(=O)c1ccc(OCc2ccc(Cl)cc2)c(N2Cc3ccccc3C2=O)c1`, the EC50 is over 100 µM.

Tested on in a further assay: not listed separately
The experiment in a line: Inhibition of wild-type HCV genotype 1b Con1 C-terminal truncated NS5B RNA dependent RNA polymerase expressed in Escherichia coli BL21(DE3) Star assessed as inhibition of [alpha-32P]UTP incorporation using polyrA/T12 as template/primer measured after 60 mins by TopCount NXT method. Also on record: species or system Hepatitis C virus (isolate Con1).
Details: not given
One may read the IC50 as the point on the concentration scale where inhibition reaches its midpoint. In the case of `O=C(O)c1ccc(OCc2ccc(Cl)cc2)c(NC(=O)c2ccccc2)c1`, the concentration for half-maximal inhibition (IC50) was determined as 8.3 µM.
Still for that read-out and setting: the same measure for `O=C(O)CNC(=O)c1ccc(OCc2ccc(Cl)cc2)c(NC(=O)c2ccccc2)c1`: 6.2 µM; for `O=C(Nc1c(OCc2ccc(Cl)cc2)cccc1C(=O)NCCO)c1ccccc1`: over 50 µM.
Consider `O=C(O)CCCOc1cccc2c1CN(c1c(OCc3ccc(Cl)cc3)cccc1C(=O)O)C2=O`, for which the half-maximal inhibitory concentration (IC50) amounted to 11 µM.
With `O=C(O)COc1cccc2c1CN(c1c(OCc3ccc(Cl)cc3)cccc1C(=O)O)C2=O`, the half-maximal inhibitory concentration (IC50) is 4.4 µM.
Regarding `O=C(O)Cc1cccc(OCc2ccc(Cl)cc2)c1NC(=O)c1ccccc1`, the concentration for half-maximal inhibition (IC50) amounted to 10 µM.
For `O=C(Nc1c(OCc2ccc(Cl)cc2)cccc1-c1nnn[nH]1)c1ccccc1`, the IC50 was 25 µM.
Regarding `O=C(Nc1c(OCc2ccc(Cl)cc2)cccc1C(=O)O)c1ccccc1`, the IC50 came to 8.4 µM.
Same read-out and setting: the figure for `O=C(O)/C=C/c1cccc2c1CN(c1c(OCc3ccc(Cl)cc3)cccc1C(=O)O)C2=O` is 1.7 µM.
For the compound `O=C(O)COc1ccccc1C(=O)Nc1c(OCc2ccc(Cl)cc2)cccc1C(=O)O`, the IC50 stood at 1.2 µM.
Still for that read-out and setting: the same measure for `O=C(O)c1cccc(OCc2ccc(Cl)cc2)c1N1CCCc2ccccc2C1=O`: 32 µM.
Regarding `CS(=O)(=O)NC(=O)c1ccc(OCc2ccc(Cl)cc2)c(NC(=O)c2ccccc2)c1`, the 50% inhibitory concentration (IC50) was 15 µM.
The same measure, in the same setting: the same measure for `O=C(O)c1cccc(OCc2ccc(Cl)cc2)c1N1Cc2ccccc2C1=O`: 8.7 µM; for `O=C(NCCO)c1ccc(OCc2ccc(Cl)cc2)c(NC(=O)c2ccccc2)c1`: over 50 µM.
For `O=C(O)c1cccc(OCc2ccc(Cl)cc2)c1N1Cc2c(O)cccc2C1=O`, the IC50 was 6.6 µM.
Still for that read-out and setting: the same measure for `O=C(Nc1c(OCc2ccc(Cl)cc2)cccc1C(=O)O)c1ccccc1O`: 4.6 µM.
On to `O=C(O)CNC(=O)c1ccc(OCc2ccc(Cl)cc2)c(N2Cc3ccccc3C2=O)c1`, for which the IC50 is 0.88 µM.
As to `CN(C(=O)c1ccccc1)c1c(OCc2ccc(Cl)cc2)cccc1C(=O)O`, the IC50 is over 50 µM.
The same measure, in the same setting: the same measure for `CS(=O)(=O)NC(=O)c1cccc(OCc2ccc(Cl)cc2)c1NC(=O)c1ccccc1`: 24 µM; for `O=C(O)CCCOc1ccccc1C(=O)Nc1c(OCc2ccc(Cl)cc2)cccc1C(=O)O`: 2.1 µM.

The next assay relates to Hepatitis C virus. As to the kind of experiment: Antiviral activity against HCV genotype 1b Con1 expressing C-terminal truncated NS5B assessed as inhibition of viral RNA production at 50 uM by high throughput screening method. It is filed as functional. The settings on record: Hepacivirus hominis.
For `O=C(Nc1c(OCc2ccc(Cl)cc2)cccc1C(=O)O)c1ccccc1`, the inhibition result was “Active”.

The target in another assay is RNA-directed RNA polymerase (Hepacivirus hominis, UniProt O39930, C316Y). As to the kind of experiment: Inhibition of wild-type HCV genotype 1b Con1 NS5B RNA dependent RNA polymerase C316Y mutant expressed in Escherichia coli BL21(DE3) Star assessed as inhibition of [alpha-32P]UTP incorporation using polyrA/T12 as template/primer measured after 60 mins by TopCount NXT method. Also on record: species or system Hepatitis C virus (isolate Con1).
Sequence of RNA-directed RNA polymerase (O39930 entry or part of it C316Y): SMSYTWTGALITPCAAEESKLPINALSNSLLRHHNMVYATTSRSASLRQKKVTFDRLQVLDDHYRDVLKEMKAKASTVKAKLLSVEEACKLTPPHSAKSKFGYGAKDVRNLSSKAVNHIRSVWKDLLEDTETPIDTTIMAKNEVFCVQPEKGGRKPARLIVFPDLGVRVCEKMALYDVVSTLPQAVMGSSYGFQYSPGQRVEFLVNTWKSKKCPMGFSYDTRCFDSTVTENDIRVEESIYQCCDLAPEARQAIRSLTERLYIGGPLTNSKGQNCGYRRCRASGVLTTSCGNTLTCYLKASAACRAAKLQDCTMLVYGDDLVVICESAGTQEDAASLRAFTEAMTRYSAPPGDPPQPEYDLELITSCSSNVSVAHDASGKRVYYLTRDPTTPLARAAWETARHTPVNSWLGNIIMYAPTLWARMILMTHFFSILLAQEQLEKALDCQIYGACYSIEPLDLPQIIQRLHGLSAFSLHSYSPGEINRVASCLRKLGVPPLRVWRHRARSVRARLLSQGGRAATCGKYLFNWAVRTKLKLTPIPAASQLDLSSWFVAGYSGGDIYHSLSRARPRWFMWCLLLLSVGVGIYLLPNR
Details: not given
Consider `O=C(Nc1c(OCc2ccc(Cl)cc2)cccc1C(=O)O)c1ccccc1`, for which the IC50 was over 50 µM.
